Measured values taken from ChEMBL document CHEMBL1127953, “Substituent effects of benzopyran-4-(N-cyano)-carboxamidine potassium channel openers for selectivity to guinea pig trachealis” (Bioorg Med Chem Lett, 1994).
pEC50: −log10 of the molar value.

Assays:
Type in all cases: functional
[1] = species on record: Rattus norvegicus; assay: […] activity in rat aorta precontracted with 30 mM KCl
[2] = species on record: Cavia porcellus; assay: Inhibition of spontaneous tone in guinea pig trachaelis
[3] = species on record: Rattus norvegicus; assay: Maximum reduction of 30 mM KCl- induced contraction in rat aorta
[4] = species on record: Cavia porcellus; assay: Maximum relaxation achieved compared to maximum relaxation to aminophylline (mM) in guinea pig trachaelis

| SMILES | pEC50 [1] | pEC50 [2] | Intrinsic activity [3] | Intrinsic activity [4] |
| --- | --- | --- | --- | --- |
| CNC(=O)C1=CC(C)(C)Oc2ccc([N+](=O)[O-])cc21 | 7.97 | 7.48 | 61% | 89.6% |
| CN(C)C(=S)C1=CC(C)(C)Oc2ccc([N+](=O)[O-])cc21 | 6.02 | 6.31 | 71.5% | 77.4% |
| CN(C)/C(=N\C#N)C1=CC(C)(C)Oc2ccc([N+](=O)[O-])cc21 | < 4.50 | 7.29 | – | 90.6% |
| CN(C)/C(=N\S(N)(=O)=O)C1=CC(C)(C)Oc2ccc([N+](=O)[O-])cc21 | < 4.50 | < 4.50 | – | – |
| CN(C)/C(=N\C#N)C1=CC(C)(C)Oc2ccc(Cl)cc21 | < 4.50 | < 4.50 | – | – |
| CN(C)/C(=N/C#N)C1=CC(C)(C)Oc2ccc(OC(F)(F)F)cc21 | < 5.00 | 6.39 | – | 56.1% |
| CN(C)/C(=N\C#N)C1=CC(C)(C)Oc2ccc(C#N)cc21 | 5.30 | 5.67 | 73.7% | 85.6% |
| CN(C)/C(=C\[N+](=O)[O-])C1=CC(C)(C)Oc2ccc([N+](=O)[O-])cc21 | 5.19 | 5.95 | 83.1% | 84.8% |
| COc1ccc2c(c1)C(/C(=N/C#N)N(C)C)=CC(C)(C)O2 | < 4.50 | < 4.50 | – | – |
| CN(C)/C(=N\C#N)C1=CC(C)(C)Oc2ccccc21 | < 4.50 | < 4.50 | – | – |
| CN(C)/C(=N\C#N)C1=CC(C)(C)Oc2ccc(Br)cc21 | < 4.50 | < 4.50 | – | – |
| CN(C)/C(=N\C#N)C1=CC(C)(C)Oc2ccc(C(F)(F)F)cc21 | 4.90 | 6.75 | 75.2% | 74.1% |
| CN(C)/C(=N\C#N)C1=CC(C)(C)Oc2ccc(S(=O)(=O)c3ccccc3)cc21 | 5.48 | 5.44 | 73.8% | 91.1% |
| CN(C)/C(=N\C(N)=O)C1=CC(C)(C)Oc2ccc([N+](=O)[O-])cc21 | < 4.50 | < 4.50 | – | – |
| CN(C)/C(=N\C#N)C1=CC(C)(C)Oc2ccc(S(C)(=O)=O)cc21 | < 4.50 | < 4.50 | – | – |
| CN(C)C(=O)C1=CC(C)(C)Oc2ccc([N+](=O)[O-])cc21 | 6.89 | 6.40 | 79.9% | 78.3% |
| CC1(C)Oc2ccc(C#N)cc2[C@@H](N2CCCC2=O)[C@H]1O [CROMAKALIM] | – | 6.07 | 74.7% | 85.1% |
| CC(N/C(=N\C#N)Nc1ccncc1)C(C)(C)C (centres undefined) [PINACIDIL ANHYDROUS] | – | 5.80 | 91.9% | 97.3% |
